Test results taken from patent US11807625B2, “Capsid inhibitors for the prevention of HIV” (Gilead Sciences, Inc., priority 2019, dated 2023).
Values joined by “and” are separate entries in the source; they are usually repeats but may differ in a detail not shown here. Equal entries are not always repeated.

Columns and labels:
[1] = system: SHIV; test: PrEP efficacy in rhesus repeat intrarectal SHIV challenge model, plasma viral load by qRT-PCR; format: in vivo, rhesus macaques; conditions: for Plasma SHIV: rhesus, individual animals
Protocol: The PrEP efficacy a compound of Formula (Ib) in rhesus was evaluated using a repeat intrarectal (IR) challenge model.
This study also established a correlation between exposure and protection using a single high-dose administration of a compound of Formula (Ib) vs. placebo, followed by multiple weekly IR challenges until infection occured. In this study, multiple challenges overlapped with clinically-relevant drug levels. The supratherapeutic IQs (inhibitory quotients) were assessed to maximize protection and achieve proof-of-concept in case rectal tissue levels were much lower than in plasma. Lower doses of a compound of Formula (Ib), or a pharmaceutically acceptable salt thereof, were assessed to capture more challenges at clinically relevant exposures, reducing the number of IR challenges, and facilitating a drug washout phase. The washout phase lasted for at least 20 weeks. In some embodiments, the washout phase lasted for 20-25 weeks. The washout phase of these studies was important to enable the administered drug concentrations to decline sufficiently below those that were expected to be clinically suppressive in order to confirm that animals that remained aviremic in the study did so because they were protected from infection as opposed to being infected following one or more of the viral challenges but remaining suppressed by prolonged therapeutic concentrations of the long-acting drug in plasma and/or tissue compartments.
FIG. 3 is a schematic of the study using a compound of Formula (Ib) in adult rhesus macaques (1:1 male/female ratio). Eight animals per group were treated with a single dose of placebo control, 150 mg/kg of a compound of Formula (Ib) (“Compound 1b”) or 300 mg/kg of a compound of Formula (Ib) (“Compound 1b”) on week 0 and allowed to wash out over time. All animals were challenged intrarectally with SHIV weekly beginning on week 1 until detectable viremia or up to a maximum of 15 challenges. SHIV challenge titer was increased over time from 10 TCID50 to 100 TCID50 through week 15 as depicted. Animal SHIV infection rate was assessed by weekly plasma viral load monitoring by qRT-PCR through study week 20. The protective efficacy of a compound of Formula (Ib) (“Compound 1b”) was established by comparing to infection rate observed in the placebo control group using the Cox proportional hazards model analysis.
Viral infection was scored one week after each SHIV challenge using a quantitative RT-PCR assay. Infected animals were defined as having a viral load >200 copies per mL plasma and the corresponding plasma viral load values are bolded.
Viral load measurements details: RNA was extracted from plasma using a QIAcube HT and the QIAcube 96 Cador pathogen HT kit (Qiagen). Gag RNA standards were generated using the AmpliCapMax™ T7 High Yield Message Maker Kit (Cell Script) and purified with RNA clean and concentrator kit (Zymo Research). Log dilutions of RNA were included with each assay run. Reverse transcription of both standards and samples was performed using Superscript III VILO (Invitrogen). Quantitative PCR was performed using the Quantstudio 6 Flex system with TaqMan™ Fast Advanced Master Mix (Applied Biosystems). Primer sequences were F-[…] (SEQ ID NO. 1) and R-[…] (SEQ ID NO. 2). The probe sequence was […] (SEQ ID NO. 3), and probe was labeled with FAM and BHQ (Biosearch Technologies). Viral loads were calculated as gag copies per mL.

[2] = Plasma concentration vs. time profile of Compound Ib in rhesus after single subcutaneous dose (SHIV challenge study); format: in vivo, rhesus macaques
Protocol: Mean±s.d. values are shown.
PK analysis details: Rhesus plasma samples were stored frozen at −80° C. and analyzed using high resolution mass spectrometry (HRMS) with electrospray ionization in the positive mode. Quantification was performed using an accurate mass ([M+H]+) of 958.1853 for a compound of Formula (Ib) (“Compound Ib”) and 758.3270 for the internal standard, respectively.

[3] = system: SHIV-162P3; test: 7-day antiviral assay (p24 ELISA endpoint) in rhesus PBMCs infected with SHIV-162P3; format: cell-based
Protocol: The mean 95% effective concentration (EC95) of 1.91±0.16 nM for a compound of Formula (Ib) (“Compound Ib”) was determined using a 7-day antiviral assay (p24 ELISA endpoint) in rhesus peripheral blood mononuclear cells (PBMCs) infected with SHIV-162P3. A competitive equilibrium dialysis assay was used to quantify rhesus plasma protein binding to Compound Ib, resulting in an inhibitory quotient (IQ) equal to Compound Ib plasma concentrations divided by a mean rhesus plasma protein-binding-adjusted EC95 (paEC95) value of 30.2±2.5 nM.

CC(C)(C#Cc1ccc(-c2ccc(Cl)c3c(NS(=O)(=O)C4CC4)nn(CC(F)F)c23)c([C@H](Cc2cc(F)cc(F)c2)NC(=O)Cn2nc(C(F)F)c3c2C(F)(F)[C@@H]2C[C@H]32)n1)S(C)(=O)=O [Compound Ib, N—((S)-1-(3-(4-chloro-3-(cyclopropanesulfonamido)-1-(2,2-difluoroethyl)-1H-indazol-7-yl)-6-(3-methyl-3-(methylsulfonyl)but-1-yn-1-yl)pyridin-2-yl)-2-(3,5-difluorophenyl)ethyl)-2-((3b S,4aR)-3-(difluoromethyl)-5,5-difluoro-3b,4,4a,5-tetrahydro-1H-cyclopropa[3,4]cyclopenta[1,2-c]pyrazol-1-yl)acetamide]
Plasma SHIV ([1]; 150 mg/kg SC day 0, study week 1, intrarectal SHIV dose 10 x TCID50): <200 copies/mL
Plasma SHIV ([1]; 150 mg/kg SC day 0, study week 2, intrarectal SHIV dose 10 x TCID50): <200 copies/mL
Plasma SHIV ([1]; 150 mg/kg SC day 0, study week 3, intrarectal SHIV dose 10 x TCID50): <200 copies/mL
Plasma SHIV ([1]; 150 mg/kg SC day 0, study week 4, intrarectal SHIV dose 10 x TCID50): <200 copies/mL
Plasma SHIV ([1]; 150 mg/kg SC day 0, study week 5, intrarectal SHIV dose 10 x TCID50): <200 copies/mL
Plasma SHIV ([1]; 150 mg/kg SC day 0, study week 6, intrarectal SHIV dose 10 x TCID50): <200 copies/mL
Plasma SHIV ([1]; 150 mg/kg SC day 0, study week 7, intrarectal SHIV dose 10 x TCID50): <200 copies/mL
Plasma SHIV ([1]; 150 mg/kg SC day 0, study week 8, intrarectal SHIV dose 10 x TCID50): <200 copies/mL
Plasma SHIV ([1]; 150 mg/kg SC day 0, study week 9, intrarectal SHIV dose 33 x TCID50): <200 copies/mL
Plasma SHIV ([1]; 150 mg/kg SC day 0, study week 10, intrarectal SHIV dose 33 x TCID50): <200 copies/mL
Plasma SHIV ([1]; 300 mg/kg SC day 0, study week 1, intrarectal SHIV dose 10 x TCID50): <200 copies/mL
Plasma SHIV ([1]; 300 mg/kg SC day 0, study week 2, intrarectal SHIV dose 10 x TCID50): <200 copies/mL
Plasma SHIV ([1]; 300 mg/kg SC day 0, study week 3, intrarectal SHIV dose 10 x TCID50): <200 copies/mL
Plasma SHIV ([1]; 300 mg/kg SC day 0, study week 4, intrarectal SHIV dose 10 x TCID50): <200 copies/mL
Plasma SHIV ([1]; 300 mg/kg SC day 0, study week 5, intrarectal SHIV dose 10 x TCID50): <200 copies/mL
Plasma SHIV ([1]; 300 mg/kg SC day 0, study week 6, intrarectal SHIV dose 10 x TCID50): <200 copies/mL
Plasma SHIV ([1]; 300 mg/kg SC day 0, study week 7, intrarectal SHIV dose 10 x TCID50): <200 copies/mL
Plasma SHIV ([1]; 300 mg/kg SC day 0, study week 8, intrarectal SHIV dose 10 x TCID50): <200 copies/mL
Plasma SHIV ([1]; 300 mg/kg SC day 0, study week 9, intrarectal SHIV dose 33 x TCID50): <200 copies/mL
Plasma SHIV ([1]; 300 mg/kg SC day 0, study week 10, intrarectal SHIV dose 33 x TCID50): <200 copies/mL
infection in relation to Compound Ib plasma exposure ([1]; 150 or 300 mg/kg single SC, weekly intrarectal challenges with escalating SHIV doses, FIGS. 6B, 6C): became infected only after the viral challenges were administered at Compound Ib plasma exposures well below the clinical IQ exposure range of 4 to 9
Plasma Compound Ib Concentrations ([2]; 150 mg/kg SC day 0, individual animals, study week 1, SHIV dose 10 x TCID50): 3112 nM and 2516 nM and 762 nM and 882 nM
Plasma Compound Ib Concentrations ([2]; 150 mg/kg SC day 0, individual animals, study week 2, SHIV dose 10 x TCID50): 2108 nM and 2027 nM and 1059 nM and 1219 nM
Plasma Compound Ib Concentrations ([2]; 150 mg/kg SC day 0, individual animals, study week 3, SHIV dose 10 x TCID50): 750 nM and 1371 nM and 334 nM and 209 nM
Plasma Compound Ib Concentrations ([2]; 150 mg/kg SC day 0, individual animals, study week 4, SHIV dose 10 x TCID50): 538 nM and 448 nM and 225 nM and 165 nM
Plasma Compound Ib Concentrations ([2]; 150 mg/kg SC day 0, individual animals, study week 5, SHIV dose 10 x TCID50): 333 nM and 449 nM and 141 nM and 113 nM
Plasma Compound Ib Concentrations ([2]; 150 mg/kg SC day 0, individual animals, study week 6, SHIV dose 10 x TCID50): 164 nM and 313 nM and 82 nM and 78 nM
Plasma Compound Ib Concentrations ([2]; 150 mg/kg SC day 0, individual animals, study week 7, SHIV dose 10 x TCID50): 139 nM and 250 nM and 69 nM and 46 nM
Plasma Compound Ib Concentrations ([2]; 150 mg/kg SC day 0, individual animals, study week 8, SHIV dose 10 x TCID50): 118 nM and 160 nM and 80 nM and 56 nM and 82 nM
Plasma Compound Ib Concentrations ([2]; 150 mg/kg SC day 0, individual animals, study week 9, SHIV dose 33 x TCID50): 54 nM and 140 nM and 58 nM and 14 nM
Plasma Compound Ib Concentrations ([2]; 300 mg/kg SC day 0, individual animals, study week 1, SHIV dose 10 x TCID50): 5528 nM and 3174 nM and 2251 nM and 1572 nM and 7818 nM and 2215 nM and 1944 nM
Plasma Compound Ib Concentrations ([2]; 300 mg/kg SC day 0, individual animals, study week 2, SHIV dose 10 x TCID50): 1944 nM and 2466 nM and 1332 nM and 2066 nM and 3983 nM and 1949 nM and 1830 nM
Plasma Compound Ib Concentrations ([2]; 300 mg/kg SC day 0, individual animals, study week 3, SHIV dose 10 x TCID50): 942 nM and 1003 nM and 894 nM and 508 nM and 1654 nM and 632 nM and 742 nM
Plasma Compound Ib Concentrations ([2]; 300 mg/kg SC day 0, individual animals, study week 4, SHIV dose 10 x TCID50): 863 nM and 664 nM and 530 nM and 359 nM and 725 nM and 416 nM and 362 nM
Plasma Compound Ib Concentrations ([2]; 300 mg/kg SC day 0, individual animals, study week 5, SHIV dose 10 x TCID50): 402 nM and 487 nM and 395 nM and 266 nM and 523 nM and 268 nM and 377 nM
Plasma Compound Ib Concentrations ([2]; 300 mg/kg SC day 0, individual animals, study week 6, SHIV dose 10 x TCID50): 370 nM and 282 nM and 382 nM and 161 nM and 242 nM and 273 nM and 350 nM
Plasma Compound Ib Concentrations ([2]; 300 mg/kg SC day 0, individual animals, study week 7, SHIV dose 10 x TCID50): 180 nM (2×) and 261 nM and 339 nM and 132 nM and 158 nM and 307 nM
Plasma Compound Ib Concentrations ([2]; 300 mg/kg SC day 0, individual animals, study week 8, SHIV dose 10 x TCID50): 209 nM and 240 nM and 319 nM and 140 nM and 378 nM and 155 nM and 226 nM
Plasma Compound Ib Concentrations ([2]; 300 mg/kg SC day 0, individual animals, study week 9, SHIV dose 33 x TCID50): 127 nM and 131 nM and 83 nM and 88 nM and 177 nM and 104 nM and 122 nM
concentration at 12 weeks ([2]; both sexes, rhesus monkey, plasma, subcutaneous, 300 mg/kg, 300 mg/kg SC day 0, individual animals, study week 12, SHIV dose 100 x TCID50, read-out: Plasma Compound Ib Concentrations): 83 nM
concentration at 15 weeks ([2]; both sexes, rhesus monkey, plasma, subcutaneous, 300 mg/kg, 300 mg/kg SC day 0, individual animals, study week 15, SHIV dose 100 x TCID50, read-out: Plasma Compound Ib Concentrations): 45 nM
mean 95% effective concentration (EC95) [3]: 1.91 ± 0.16 nM
